# Where a name gives a salt, the structure may show the parent alone. The source made the active and inactive calls.
# Tests used:
# [1] = luciferase reporter signal suppression in cells – H4 neuroglioma cells, luminescence, dose response (AID 1990); type: functional, cell-based
# [2] = tested on: BJ; test: BJ-TERT fibroblast viability loss – cell-based, RAS-independent, luminescence, dose response (AID 1933); type: functional; settings: Homo sapiens
# [3] = Luminescence Cell-Based Dose Response HTS to Identify Inhibitors of 5'UTR Stem-Loop Driven Prion Protein mRNA Translation in H4 Neuroglioblastoma Cells. [Related pubchem assays: 1827 (Project Summary), 1813 (Primary HTS)]; type: functional
# [4] = alpha-synuclein stem-loop luciferase translation blockers – H4 neuroglioma cells, luminescence, confirmation (AID 1988); type: functional, cell-based
# [5] = tested on: BJ; test: cells; type: functional, cell-based; settings: Homo sapiens
# [6] = microbe, parasite or virus in culture; type: functional; settings: Mycobacterium tuberculosis
# [7] = target: Heat shock protein HSP 90-alpha (Homo sapiens, UniProt P07900); test: Luminescence-based dose response biochemical high throughput screening assay for inhibitors of the Heat Shock Protein 90 (HSP90). [Related pubchem assays: 1831 (Summary AID.), 1846 (Confirmation screen.), 1789 (Primary screen.)]
# [8] = tested on: BJ; test: BJ-TERT-LT-ST fibroblast viability loss – cell-based, RAS-independent, luminescence, dose response (AID 1935); type: functional; settings: Homo sapiens;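 further: BJ fibroblasts immortalized with TERT plus LT and ST oncogenes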
# [9] = DRD fibroblast viability loss – cell-based, non-viral oncogenic, luminescence, dose response (AID 1934); type: functional; settings: Homo sapiens
# [10] = target: T1, Ubiquitin-conjugating enzyme E2 N (Homo sapiens, UniProt P61088); type: functional;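 further: Dose-response confirmation in a TR-FRET assay detecting UBC13-driven polyubiquitin chain formation, inhibition measured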
# T1 sequence (P61088 whole entry): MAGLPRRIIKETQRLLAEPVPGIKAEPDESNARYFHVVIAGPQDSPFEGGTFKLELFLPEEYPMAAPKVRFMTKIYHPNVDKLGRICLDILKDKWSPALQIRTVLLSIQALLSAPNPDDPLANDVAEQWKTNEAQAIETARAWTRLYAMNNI
# [11] = viability inhibitors of stage V gametocytes – luminescence, dose response (AID 1117278); type: functional, cell-based;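 further: gametocytes exposed to compound for 24 hours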
# [12] = viability loss in human Jurkat cells – cell-based, luminescence, cytotoxicity control for P. falciparum gametocyte viability project, dose response (AID 1117277); type: functional;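 further: potency reflects loss of cellular ATP meaning fewer viable cells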
# [13] = target: T2, Voltage-gated N-type calcium channel alpha-1B subunit/Amyloid beta A4 precursor protein-binding family A member 1 (Homo sapiens, UniProt Q00975+Q02410); type: protein assay
# [14] = target: T2, Voltage-gated N-type calcium channel alpha-1B subunit/Amyloid beta A4 precursor protein-binding family A member 1; type: protein assay; remark: listed apart in the source
# [15] = target: Bifunctional protein GlmU (Mycobacterium tuberculosis, UniProt P9WMN3); test: Inhibitors of Mycobacterial Glucosamine-1-phosphate acetyl transferase (GlmU). Secondary screen.; design: species or system Mycobacterium tuberculosis H37Rv
# [16] = target: Glucose-6-phosphate 1-dehydrogenase (Homo sapiens, UniProt P11413); test: inhibition of Homo sapiens G6PD, dose series – biochemical, fluorescence, selectivity assay for P. falciparum G6PD inhibitor project, dose response (AID 504792); type: functional
# [17] = target: Eukaryotic translation initiation factor 4E (Mus musculus, UniProt P63073); test: blockers of eIF4G binding by eIF4E – biochemical, TR-FRET, dose response (AID 855); type: functional;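 further: potency for disrupting eIF4E binding to eIF4GI seen as loss of FRET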
# [18] = tested on: H9c2; test: cells; type: functional, cell-based; settings: Rattus norvegicus, H9c2, Myocardium;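 further: confirmatory concentration-response retest of ultra-high-throughput screening hits for modulation of myocardial damage; cell death induced by hydrogen peroxide oxidative stress; compound pretreatment for 60 min then peroxide exposure for 2 h; potency is for protecting the cells against peroxide damage rather than for killing them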
# [19] = target: Transthyretin (Homo sapiens, UniProt P02766); test: Luminescence-based cell-based high throughput dose response assay to identify activators of Transthyretin (TTR) transcription.; type: functional
# [20] = target: Ras and Rab interactor 1/Tyrosine-protein kinase ABL1 (Homo sapiens, UniProt P00519+Q13671); type: functional;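 further: biochemical TR-FRET dose-response test measuring inhibition of binding between Rin1 and Abl proteins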
# [21] = lung carcinoma cell viability loss – CellTiter-Glo luminescence, dry powder, set 17, dose response (AID 1117284); type: functional, cell-based; settings: A549
# [22] = inhibitors of TRPM1-promoter reporter in SK-MEL-5 – cell-based, luciferase, dry powder, set 9, MITF inhibitor project, dose response (AID 651588); type: functional
# [23] = cytotoxicity in MITF-independent A375 cells – cell-based, CellTiter-Glo luminescence, dry powder, set 4, counter-screen for MITF inhibitor project, dose response (AID 624364); type: functional; settings: A-375;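 further: A375 melanoma cells are MITF independent so this is a counter screen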
# [24] = viability loss in MITF-independent A375 cells – cell-based, CellTiter-Glo luminescence, dry powder, set 7, counter-screen for MITF inhibitor project, dose response (AID 624490); type: functional; settings: A-375
# [25] = MITF Orthogonal Assay: MALME3 CTG Assay Measured in Cell-Based System Using Plate Reader - 2084-04_Inhibitor_Dose_DryPowder_Activity_Set6.; type: functional; settings: MALME-3
# [26] = growth inhibition of SK-MEL-5 melanoma cells – cell-based, CellTiter-Glo luminescence, dry powder, set 8, orthogonal assay for MITF inhibitor project, dose response (AID 651586); type: functional
# [27] = growth inhibition of MALME3 cells – cell-based, CellTiter-Glo luminescence, dry powder, set 5, orthogonal assay for MITF inhibitor project, dose response (AID 651584); type: functional; settings: MALME-3
# [28] = cytotoxicity in melanoma parental cells – cell-based, CellTiter-Glo, dry powder, set 6, MITF inhibitor project, dose response (AID 624429); type: functional; settings: SK-MEL-5
# [29] = MITF Orthogonal Assay: SK-MEL-5 CTG Assay Measured in Cell-Based System Using Plate Reader - 2084-02_Inhibitor_Dose_DryPowder_Activity_Set5.; type: functional
# [30] = MITF Measured in Cell-Based System Using Plate Reader - 2084-01_Inhibitor_Dose_DryPowder_Activity_Set6.; type: functional
# [31] = MITF Measured in Cell-Based System Using Plate Reader - 2084-01_Inhibitor_Dose_DryPowder_Activity_Set7.; type: functional
# [32] = melanocyte viability loss, MITF-dependent cells, cell-based, plate reader, dry powder, cytotoxicity control, dose response (AID 651920); type: functional
# [33] = BioA aminotransferase inhibition, coupled fluorescent readout – biochemical, coupled fluorescence displacement, 20-point, dry powder, dose response (AID 743357); type: functional
# [34] = target: RNA-editing ligase 1, mitochondrial (Trypanosoma brucei brucei, UniProt P86926); test: inhibition of trypanosome RNA editing ligase – biochemical, fluorescence, Trypanosoma brucei, dose response (AID 1117295); type: functional
# [35] = luciferase reporter signal reduction – luminescence, H4-C neuroglioblastoma cells, dose response (AID 2458); type: functional, cell-based;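 further: H4 neuroglioblastoma cells stably carrying a luciferase reporter gene fusion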
# [36] = cells; type: functional, cell-based
# [37] = alpha-synuclein stem-loop translation blockers – luminescence, H4 neuroglioblastoma cells, dose confirmation, confirmation (AID 2454); type: functional, cell-based;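 further: H4 neuroglioblastoma cells carrying an alpha-synuclein 5'UTR luciferase reporter; potency for inhibition of the luciferase signal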
# [38] = HEK-293T viability loss after treatment – luminescence, T-cell screen hits, cytotoxicity control for TCR NF-kB inhibitor project, dose response (AID 489026); type: functional, cell-based;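 further: cells exposed to compound about 14 hours before the viability readout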
# [39] = cells; type: functional, cell-based; remark: listed apart in the source
# [40] = target: T3, Nuclear receptor subfamily 0 group B member 1 (Homo sapiens, UniProt P51843); type: functional, cell-based;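 further: HEK293T cells transfected with SF-1 and DAX-1 plus StAR promoter luciferase reporter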
# T3 sequence (P51843 whole entry): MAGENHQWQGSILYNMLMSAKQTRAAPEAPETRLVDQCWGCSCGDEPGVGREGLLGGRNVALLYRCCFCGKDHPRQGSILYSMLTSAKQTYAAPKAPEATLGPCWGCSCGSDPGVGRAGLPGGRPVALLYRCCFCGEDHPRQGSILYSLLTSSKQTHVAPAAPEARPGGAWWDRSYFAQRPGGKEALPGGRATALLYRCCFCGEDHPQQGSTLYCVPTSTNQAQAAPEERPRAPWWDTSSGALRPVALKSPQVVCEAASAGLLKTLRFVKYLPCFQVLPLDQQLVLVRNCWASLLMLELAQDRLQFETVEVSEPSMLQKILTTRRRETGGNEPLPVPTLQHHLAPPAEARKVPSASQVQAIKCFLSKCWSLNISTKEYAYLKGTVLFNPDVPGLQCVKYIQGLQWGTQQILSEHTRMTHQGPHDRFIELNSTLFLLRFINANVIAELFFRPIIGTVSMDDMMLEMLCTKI
# [41] = target: Paired box protein Pax-8 (Homo sapiens, UniProt Q06710); test: PAX8 transcriptional activity inhibition in RMG-I – RMG-I cells, luciferase, cherry-pick, dose response (AID 687027); type: functional, cell-based;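 further: luciferase reporter driven by Pax8 target thyroperoxidase promoter measured by SteadyGlo luminescence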
# [42] = inhibitors acting on PAX2 in cells – cell-based, plate reader, dry powder samples, selectivity assay for PAX8 inhibitor project, dose response (AID 743048); type: functional;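 further: HEK293 cells carrying a WT1 promoter luciferase reporter driven by expressed Pax2; potency is for inhibition of Pax2 driven reporter signal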
# [43] = COV362 cell viability loss – plate reader, dry powder, SA12, cytotoxicity control for PAX8 inhibitor project, dose response (AID 743144); type: functional, cell-based
# [44] = toxicity toward immortalized ovarian surface epithelium – cell-based, plate reader, dry powder samples, cytotoxicity control for PAX8 inhibitor project, dose response (AID 743045); type: functional
# [45] = A2780 cell killing – plate reader, dry powder samples, cytotoxicity control, dose response (AID 743046); type: functional, cell-based
# [46] = OVCAR-3 cell viability loss – plate reader, dry powder samples, PAX8 inhibitor project, dose response (AID 743044); type: functional, cell-based
# [47] = PAX5 cellular inhibition readout – cell-based, plate reader, dry powder samples, selectivity assay for PAX8 inhibitor project, dose response (AID 743047); type: functional;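 further: HEK293 cells carrying a Pax5 driven CD19 promoter luciferase reporter; potency of inhibitors that lower reporter luminescence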
# [48] = IGROV1 cell killing – plate reader, dry powder samples, PAX8 inhibitor project, dose response (AID 743043); type: functional, cell-based; settings: IGROV-1
# [49] = OVCAR4 cell viability loss – plate reader, dry powder, SA11, cytotoxicity control for PAX8 inhibitor project, dose response (AID 743150); type: functional, cell-based; settings: OVCAR-4
# [50] = COV434 cell viability loss – plate reader, dry powder, SA7, cytotoxicity control for PAX8 inhibitor project, dose response (AID 743145); type: functional, cell-based
# [51] = OV-90 cell viability loss – plate reader, dry powder, SA8, PAX8 inhibitor project, dose response (AID 743149); type: functional, cell-based
# [52] = PAX8-dependent cell viability loss – plate reader, dry powder, dose response (AID 743049); type: functional, cell-based
# [53] = IC50 of insulin release inhibition, rat insulinoma INS-1E line, 5 mM glucose, cell-based (AID 1117331); type: functional
# [54] = cells; type: functional, cell-based; settings: INS-1E
# [55] = rise of 2N DNA cells, HeLa – IC50, dose response (AID 1117349); type: functional, cell-based
# [56] = rise of 4N DNA cells, HeLa – IC50, dose response (AID 1117351); type: functional, cell-based
# T2 sequence (Q00975 whole entry): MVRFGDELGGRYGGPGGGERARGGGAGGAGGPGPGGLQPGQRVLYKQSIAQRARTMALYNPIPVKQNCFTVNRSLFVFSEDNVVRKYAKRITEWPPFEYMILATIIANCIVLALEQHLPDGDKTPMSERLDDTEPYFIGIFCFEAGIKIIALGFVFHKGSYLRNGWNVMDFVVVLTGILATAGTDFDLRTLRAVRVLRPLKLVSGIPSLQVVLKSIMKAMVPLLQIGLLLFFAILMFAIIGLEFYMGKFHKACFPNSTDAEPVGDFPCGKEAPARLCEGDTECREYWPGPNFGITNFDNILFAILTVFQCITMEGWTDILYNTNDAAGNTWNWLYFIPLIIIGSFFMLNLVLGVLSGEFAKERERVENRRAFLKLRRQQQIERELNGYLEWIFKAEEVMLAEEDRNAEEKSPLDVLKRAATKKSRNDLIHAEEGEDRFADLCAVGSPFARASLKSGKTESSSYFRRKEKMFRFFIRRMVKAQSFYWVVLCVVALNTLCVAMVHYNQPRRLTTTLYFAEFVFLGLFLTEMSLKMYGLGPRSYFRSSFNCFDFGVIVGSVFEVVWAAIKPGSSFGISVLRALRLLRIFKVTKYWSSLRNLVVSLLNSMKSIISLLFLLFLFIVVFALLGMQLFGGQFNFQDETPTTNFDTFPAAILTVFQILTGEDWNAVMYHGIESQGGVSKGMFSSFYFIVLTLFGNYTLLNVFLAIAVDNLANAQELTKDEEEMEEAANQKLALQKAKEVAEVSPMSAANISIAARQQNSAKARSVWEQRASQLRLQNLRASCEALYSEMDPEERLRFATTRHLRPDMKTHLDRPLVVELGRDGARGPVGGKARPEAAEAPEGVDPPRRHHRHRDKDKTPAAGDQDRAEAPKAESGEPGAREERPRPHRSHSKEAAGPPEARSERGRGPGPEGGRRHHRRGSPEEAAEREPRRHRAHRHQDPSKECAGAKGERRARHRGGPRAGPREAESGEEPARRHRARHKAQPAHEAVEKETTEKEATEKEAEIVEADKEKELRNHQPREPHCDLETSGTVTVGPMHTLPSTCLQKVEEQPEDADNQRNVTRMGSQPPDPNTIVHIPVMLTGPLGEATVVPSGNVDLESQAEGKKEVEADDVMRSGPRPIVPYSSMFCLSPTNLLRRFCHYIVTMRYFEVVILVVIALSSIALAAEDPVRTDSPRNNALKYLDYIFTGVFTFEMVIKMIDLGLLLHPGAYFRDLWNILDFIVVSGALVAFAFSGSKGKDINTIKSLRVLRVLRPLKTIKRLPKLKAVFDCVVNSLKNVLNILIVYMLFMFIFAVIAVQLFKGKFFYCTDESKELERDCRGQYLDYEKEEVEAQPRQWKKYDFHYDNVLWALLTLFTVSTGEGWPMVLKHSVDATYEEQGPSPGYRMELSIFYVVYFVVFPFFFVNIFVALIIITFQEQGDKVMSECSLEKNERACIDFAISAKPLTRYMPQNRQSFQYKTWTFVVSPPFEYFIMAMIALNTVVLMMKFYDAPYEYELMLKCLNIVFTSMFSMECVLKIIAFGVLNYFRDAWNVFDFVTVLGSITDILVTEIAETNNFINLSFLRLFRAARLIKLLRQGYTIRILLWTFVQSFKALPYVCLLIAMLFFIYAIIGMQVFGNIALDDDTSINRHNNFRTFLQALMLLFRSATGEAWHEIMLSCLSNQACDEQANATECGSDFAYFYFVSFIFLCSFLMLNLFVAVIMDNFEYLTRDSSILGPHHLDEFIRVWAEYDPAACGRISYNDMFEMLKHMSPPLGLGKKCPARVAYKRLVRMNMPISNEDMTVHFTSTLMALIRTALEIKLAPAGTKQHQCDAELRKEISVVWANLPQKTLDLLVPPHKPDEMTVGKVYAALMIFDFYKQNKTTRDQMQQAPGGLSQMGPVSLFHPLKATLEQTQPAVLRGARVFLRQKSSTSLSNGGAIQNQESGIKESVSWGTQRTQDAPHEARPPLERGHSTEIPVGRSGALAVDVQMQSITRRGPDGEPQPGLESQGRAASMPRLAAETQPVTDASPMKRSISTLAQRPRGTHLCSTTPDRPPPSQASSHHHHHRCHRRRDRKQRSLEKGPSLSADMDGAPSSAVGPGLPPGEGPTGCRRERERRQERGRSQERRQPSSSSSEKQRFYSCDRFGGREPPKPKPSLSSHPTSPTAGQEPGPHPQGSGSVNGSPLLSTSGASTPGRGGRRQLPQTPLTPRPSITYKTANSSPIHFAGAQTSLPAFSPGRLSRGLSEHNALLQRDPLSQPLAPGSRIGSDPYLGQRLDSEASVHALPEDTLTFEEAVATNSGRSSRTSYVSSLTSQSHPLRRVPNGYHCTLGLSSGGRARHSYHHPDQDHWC
# T2 sequence (Q02410 whole entry): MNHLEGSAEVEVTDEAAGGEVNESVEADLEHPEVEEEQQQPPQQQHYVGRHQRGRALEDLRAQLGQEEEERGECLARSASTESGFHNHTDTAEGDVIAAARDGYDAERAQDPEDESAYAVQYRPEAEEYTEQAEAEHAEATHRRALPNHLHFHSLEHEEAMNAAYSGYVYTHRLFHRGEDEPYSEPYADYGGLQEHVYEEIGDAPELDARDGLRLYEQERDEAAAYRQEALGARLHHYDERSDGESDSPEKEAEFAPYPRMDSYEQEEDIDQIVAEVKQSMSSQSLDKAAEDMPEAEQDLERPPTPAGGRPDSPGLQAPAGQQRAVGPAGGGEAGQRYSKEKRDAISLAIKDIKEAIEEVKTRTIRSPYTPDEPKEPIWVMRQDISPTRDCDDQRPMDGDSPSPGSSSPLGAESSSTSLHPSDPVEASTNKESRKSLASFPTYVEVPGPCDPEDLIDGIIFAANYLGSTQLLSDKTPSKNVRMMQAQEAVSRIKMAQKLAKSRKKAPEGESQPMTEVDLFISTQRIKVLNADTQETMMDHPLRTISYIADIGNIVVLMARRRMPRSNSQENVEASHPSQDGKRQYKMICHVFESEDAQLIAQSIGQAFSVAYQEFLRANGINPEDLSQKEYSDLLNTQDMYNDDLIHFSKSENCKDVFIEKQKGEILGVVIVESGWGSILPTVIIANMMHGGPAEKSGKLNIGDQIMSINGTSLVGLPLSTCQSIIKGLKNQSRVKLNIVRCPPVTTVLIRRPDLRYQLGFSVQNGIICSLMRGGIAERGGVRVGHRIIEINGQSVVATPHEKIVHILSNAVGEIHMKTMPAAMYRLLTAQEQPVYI
# Chain of Bifunctional protein GlmU (P9WMN3 whole entry): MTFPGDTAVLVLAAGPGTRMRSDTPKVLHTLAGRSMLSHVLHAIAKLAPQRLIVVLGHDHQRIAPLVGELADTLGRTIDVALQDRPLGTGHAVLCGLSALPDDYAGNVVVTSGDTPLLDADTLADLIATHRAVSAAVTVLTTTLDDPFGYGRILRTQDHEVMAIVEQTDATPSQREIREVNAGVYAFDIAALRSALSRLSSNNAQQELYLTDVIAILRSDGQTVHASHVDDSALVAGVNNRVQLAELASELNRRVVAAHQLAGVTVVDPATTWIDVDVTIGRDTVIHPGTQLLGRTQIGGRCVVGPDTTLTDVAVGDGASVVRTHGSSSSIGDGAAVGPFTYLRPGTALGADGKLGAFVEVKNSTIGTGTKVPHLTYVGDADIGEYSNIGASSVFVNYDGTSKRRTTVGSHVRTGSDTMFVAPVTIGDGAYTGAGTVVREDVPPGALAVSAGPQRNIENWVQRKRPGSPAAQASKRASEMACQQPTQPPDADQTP
# Chain of Glucose-6-phosphate 1-dehydrogenase (P11413 whole entry): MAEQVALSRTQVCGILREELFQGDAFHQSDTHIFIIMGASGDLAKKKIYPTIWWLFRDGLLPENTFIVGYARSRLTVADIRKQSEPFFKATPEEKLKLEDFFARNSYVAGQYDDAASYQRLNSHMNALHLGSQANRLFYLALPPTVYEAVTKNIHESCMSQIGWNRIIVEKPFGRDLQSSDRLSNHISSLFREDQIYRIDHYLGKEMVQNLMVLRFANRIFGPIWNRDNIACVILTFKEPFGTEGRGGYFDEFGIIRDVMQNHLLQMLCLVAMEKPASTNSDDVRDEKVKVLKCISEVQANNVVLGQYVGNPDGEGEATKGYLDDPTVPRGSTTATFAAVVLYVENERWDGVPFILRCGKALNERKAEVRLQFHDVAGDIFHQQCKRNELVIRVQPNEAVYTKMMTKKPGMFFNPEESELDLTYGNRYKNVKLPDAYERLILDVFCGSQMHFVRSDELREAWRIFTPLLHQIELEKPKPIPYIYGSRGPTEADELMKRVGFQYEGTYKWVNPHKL
# Chain of Eukaryotic translation initiation factor 4E (P63073 whole entry): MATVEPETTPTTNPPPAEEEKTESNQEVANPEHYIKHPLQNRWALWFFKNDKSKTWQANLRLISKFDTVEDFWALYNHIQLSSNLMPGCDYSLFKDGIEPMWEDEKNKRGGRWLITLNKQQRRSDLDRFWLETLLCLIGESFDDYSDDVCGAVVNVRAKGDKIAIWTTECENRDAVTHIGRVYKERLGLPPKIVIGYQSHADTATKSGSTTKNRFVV
# Chain of Paired box protein Pax-8 (Q06710 whole entry): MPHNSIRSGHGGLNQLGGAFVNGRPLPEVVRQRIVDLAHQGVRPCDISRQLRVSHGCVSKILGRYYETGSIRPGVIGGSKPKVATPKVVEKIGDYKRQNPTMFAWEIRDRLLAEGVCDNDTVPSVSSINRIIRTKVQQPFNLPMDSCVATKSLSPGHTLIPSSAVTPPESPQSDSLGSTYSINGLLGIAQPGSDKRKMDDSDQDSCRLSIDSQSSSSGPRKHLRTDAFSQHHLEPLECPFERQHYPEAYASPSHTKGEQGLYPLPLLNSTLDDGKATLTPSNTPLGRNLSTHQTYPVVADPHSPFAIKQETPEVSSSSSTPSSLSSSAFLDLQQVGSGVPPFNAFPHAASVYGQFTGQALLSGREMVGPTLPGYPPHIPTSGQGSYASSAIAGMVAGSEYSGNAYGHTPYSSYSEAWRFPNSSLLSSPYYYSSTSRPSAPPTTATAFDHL
compound,measurement,setting,value
COc1ccc(-c2cc3c(=O)n(CC(=O)NCCCN4CCC(Cc5ccccc5)CC4)ncn3n2)cc1,EC50,[1],9.23 µM (inconclusive)
same,EC50,[2],10.1 µM (active)
same,EC50,[3],11.4 µM (active)
same,EC50,[4],8.06 µM (active)
same,EC50,[5],16.4 µM (active)
same,CC50,[6],34.2 µM (active)
same,IC50,[7],6.82 µM (active)
same,EC50,[8],12.9 µM (inconclusive)
same,EC50,[9],8.08 µM (active)
same,IC50,[10],> 20 µM (inactive)
COc1ccc(CC(=O)Nc2cccc(-c3ccc4nnc(C)n4n3)c2)cc1OC,IC50,[11],> 109 µM (inactive)
same,IC50,[12],35.6 µM (inactive)
O=C1Nc2ccccc2C(=O)C1(Cl)Cc1ccccc1 (stereo not drawn),IC50,[13],23.3 µM (active)
same,IC50,[14],> 50 µM (inactive)
same,IC50,[15],62.9 µM (active)
same,IC50,[16],> 80 µM (inactive)
same,IC50,[17],> 64 µM (inactive)
same,IC50,[18],17.2 µM (active)
C=CCn1c(=O)c2c(nc3n2CC(C)CN3Cc2ccccc2)n(C)c1=O (stereo not drawn),EC50,[19],> 167 µM (inactive)
C[C@@H]1CN([C@H](C)CO)S(=O)(=O)c2ccc(C#C[C@@H](C)O)cc2O[C@@H]1CN(C)Cc1ccc(-c2ccccc2)cc1,IC50,[20],9.68 µM (active)
same,AC50,[21],36.1 µM (active)
O=C1C=C(NS(=O)(=O)c2cccs2)C(=O)c2ccccc21,AC50,[22],16.9 µM (active)
same,AC50,[23],> 70 µM (inactive)
same,AC50,[24],> 70 µM (inactive)
same,AC50,[25],57.6 µM (active)
same,AC50,[26],32.8 µM (active)
same,AC50,[27],57.6 µM (active)
same,AC50,[28],13.3 µM (active)
same,AC50,[29],15.8 µM (active)
same,AC50,[30],6.01 µM (active)
same,AC50,[31],5.89 µM (active)
same,AC50,[32],17.6 µM (active)
O=C(c1ccc2c(c1)OCO2)N1CCN(c2ccc(S(=O)(=O)C(F)F)cc2)CC1,AC50,[33],16.7 µM (active)
C=CCNC1=NC(c2ccccc2C(F)(F)F)C(C(=O)OC)=C(C)N1Cc1cccc(C(F)(F)F)c1 (stereo not drawn),IC50,[34],> 96.6 µM (inactive)
CN[C@H]1CCc2cc(OC)c(OC)c(OC)c2-c2ccc(OC)c(=O)cc21 [DEMECOLCINE],EC50,[1],< 0.1 µM (active)
same,EC50,[35],0.078 µM (active)
same,EC50,[36],0.08 µM (active)
same,EC50,[4],< 0.1 µM (active)
same,EC50,[37],0.085 µM (active)
same,IC50,[38],> 80 µM (inactive)
same,IC50,[39],> 67.6 µM (inactive)
same,IC50,[40],> 0.834 µM (active)
same,AC50,[41],< 0.26 µM (active)
same,AC50,[42],0.217 µM (active)
same,AC50,[43],0.0966 µM (active)
same,AC50,[44],0.113 µM (active)
same,AC50,[45],0.234 µM (active)
same,AC50,[46],0.318 µM (active)
same,AC50,[47],> 100 µM (inactive)
same,AC50,[48],6.35 µM (active)
same,AC50,[49],0.113 µM (active)
same,AC50,[50],0.0615 µM (active)
same,AC50,[51],0.0488 µM (active)
same,AC50,[52],0.0967 µM (active)
NCc1ccc(S(N)(=O)=O)cc1 [MAFENIDE HYDROCHLORIDE],IC50,[53],> 33.3 µM (inactive)
same,IC50,[54],> 33.3 µM (inactive)
CC(=O)Oc1ccccc1C(=O)Nc1ncc([N+](=O)[O-])s1 [NITAZOXANIDE],IC50,[55],> 10 µM (inactive)
same,IC50,[56],> 10 µM (inactive)
